Counter-ions that a name gives are not always drawn. Like-named read-outs stand apart in the source and are kept apart here.
System: NRF2 (NQO1 activity as marker for NRF2 activation), BEAS-2B cells
Experiment: BEAS-2B NQO1 MTT Assay
Type: cell-based
In short: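 As a marker of NRF2 activation, NQO1 specific activity was read from the rate of absorbance change at 570 nm in MTT cocktail over 30 minutes. Lysates came from BEAS-2B cells treated for 48 hours at 37° C, and EC50 was derived by 3-parameter fitting.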

[1] = Homo sapiens, EC50 of NQO1 specific activity induction, 48 hours incubation, read-out: EC50
[2] = EC50 of NQO1 specific activity induction, 48 hours incubation, read-out: EC50

| Structure (SMILES) | EC50 [1] | also measured |
| --- | --- | --- |
| CC[C@@H]1CN(Cc2cc([C@H](CC(=O)NCC(=O)NC(C)C)c3ccc4c(nnn4CC)c3C)ccc2C)S(=O)(=O)c2cccnc2O1 [Example 42, (S)-3-(3-(((R)-4-Ethyl-1,1-dioxido-3,4-dihydro-2H-pyrido[2,3-b][1,4,5]oxathiazepin-2-yl)methyl)-4-methylphenyl)-3-(1-ethyl-4-methyl-1H-benzo[d][1,2,3]triazol-5-yl)-N-(2-(isopropylamino)-2-oxoethyl)propanamide] | 1000 to 10000 nM |  |
| CC[C@@H]1CN(Cc2cc([C@H](CC(=O)NC(C)C(N)=O)c3ccc4c(nnn4CC)c3C)ccc2C)S(=O)(=O)c2cccnc2O1 (stereo partly drawn) [Example 43, (3S)—N-(1-Amino-1-oxopropan-2-yl)-3-(3-(((R)-4-ethyl-1,1-dioxido-3,4-dihydro-2H-pyrido[2,3-b][1,4,5]oxathiazepin-2-yl)methyl)-4-methylphenyl)-3-(1-ethyl-4-methyl-1H-benzo[d][1,2,3]triazol-5-yl)propanamide] | 100 to 1000 nM |  |
| CC[C@@H]1CN(Cc2cc([C@H](CC(=O)NCCCC#N)c3ccc4c(nnn4CC)c3C)ccc2C)S(=O)(=O)c2cccnc2O1 [Example 44, (S)-N-(3-Cyanopropyl)-3-(3-(((R)-4-ethyl-1,1-dioxido-3,4-dihydro-2H-pyrido[2,3-b][1,4,5]oxathiazepin-2-yl)methyl)-4-methylphenyl)-3-(1-ethyl-4-methyl-1H-benzo[d][1,2,3]triazol-5-yl)propanamide] | 100 to 1000 nM |  |
| CC[C@@H]1CN(Cc2cc([C@H](CC(=O)NCCNC(C)=O)c3ccc4c(nnn4CC)c3C)ccc2C)S(=O)(=O)c2cccnc2O1 [Example 45, (S)—N-(2-Acetamidoethyl)-3-(3-(((R)-4-ethyl-1,1-dioxido-3,4-dihydro-2H-pyrido[2,3-b][1,4,5]oxathiazepin-2-yl)methyl)-4-methylphenyl)-3-(1-ethyl-4-methyl-1H-benzo[d][1,2,3]triazol-5-yl)propanamide] | 100 to 1000 nM | EC50 (Homo sapiens, in some determinations, read-out: EC50 values in some determinations): < 0.17 nM |
| CC[C@@H]1CN(Cc2cc([C@@H](CC(=O)Nc3cccnc3)c3ccc4c(nnn4C)c3C)ccc2C)Cc2ncccc2O1 [Example 46, (R)-3-(1,4-Dimethyl-1H-benzo[d][1,2,3]triazol-5-yl)-3-(3-(((R)-2-ethyl-2,3-dihydropyrido[2,3-f][1,4]oxazepin-4(5H)-yl)methyl)-4-methylphenyl)-N-(pyridin-3-yl)propanamide, Formic Acid Salt] | 1000 to 10000 nM |  |
| CC[C@@H]1CN(Cc2cc([C@H](CC(=O)Nc3cccnc3)c3ccc4c(nnn4C)c3C)ccc2C)Cc2ncccc2O1 [Example 47, (S)-3-(1,4-Dimethyl-1H-benzo[d][1,2,3]triazol-5-yl)-3-(3-(((R)-2-ethyl-2,3-dihydropyrido[2,3-f][1,4]oxazepin-4(5H)-yl)methyl)-4-methylphenyl)-N-(pyridin-3-yl)propanamide, Formic Acid Salt] | 100 to 1000 nM |  |
| CCn1cc(CO[C@H](c2ccc(C)c(CN3C[C@@H](C)Cc4ccncc4S3(=O)=O)c2)C(C)(C)C(=O)Nc2cccnc2)nn1 [Example 48, (R)-3-((1-Ethyl-1H-1,2,3-triazol-4-yl)methoxy)-2,2-dimethyl-3-(4-methyl-3-(((S)-4-methyl-1,1-dioxido-4,5-dihydropyrido[4,3-f][1,2]thiazepin-2(3H)-yl)methyl)phenyl)-N-(pyridin-3-yl)propanamide, Formic Acid Salt] | 100 to 1000 nM |  |
| CCn1cc(CO[C@H](c2ccc(C)c(CN3C[C@@H](C)Cc4ccccc4S3(=O)=O)c2)C(C)(C)C(=O)Nc2cccnc2)nn1 [Example 49, (R)-3-((1-Ethyl-1H-1,2,3-triazol-4-yl)methoxy)-2,2-dimethyl-3-(4-methyl-3-(((S)-4-methyl-1,1-dioxido-4,5-dihydrobenzo[f][1,2]thiazepin-2(3H)-yl)methyl)phenyl)-N-(pyridin-3-yl)propanamide, Formic acid salt] | 100 to 1000 nM |  |
| CCCn1cc(CO[C@H](c2ccc(C)c(CN3C[C@@H](C)Cc4ncccc4S3(=O)=O)c2)C(C)(C)C(=O)Nc2cccnc2)nn1 [Example 50, (R)-2,2-Dimethyl-3-(4-methyl-3-(((S)-4-methyl-1,1-dioxido-4,5-dihydropyrido[2,3-f][1,2]thiazepin-2(3H)-yl)methyl)phenyl)-3-((1-propyl-1H-1,2,3-triazol-4-yl)methoxy)-N-(pyridin-3-yl)propanamide, Formic acid salt] | 100 to 1000 nM |  |
| CCCn1cc(CO[C@H](c2ccc(C)c(CN3C[C@@H](C)Cc4ccccc4S3(=O)=O)c2)C(C)(C)C(=O)Nc2cccnc2)nn1 [Example 51, (R)-2,2-Dimethyl-3-(4-methyl-3-(((S)-4-methyl-1,1-dioxido-4,5-dihydrobenzo[f][1,2]thiazepin-2(3H)-yl(methyl)phenyl)-3-((1-propyl-1H-1,2,3-triazol-4-yl)methoxy)-N-(pyridin-3-yl)propanamide, Formic acid salt] |  | EC50 [2]: 100 to 1000 nM |
| CCCn1cc(CO[C@H](c2ccc(C)c(CN3C[C@@H](C)Cc4ccc(C(F)(F)F)cc4S3(=O)=O)c2)C(C)(C)C(=O)Nc2cccnc2)nn1 [Example 52, (R)-2,2-Dimethyl-3-(4-methyl-3-(((S)-4-methyl-1,1-dioxido-8-(trifluoromethyl)-4,5-dihydrobenzo[f][1,2]thiazepin-2(3H)-yl)methyl)phenyl)-3-((1-propyl-1H-1,2,3-triazol-4-yl)methoxy)-N-(pyridin-3-yl)propanamide] | 1 to 10 nM |  |
| CCCn1cc(CO[C@H](c2ccc(C)c(CN3CC(C)(C)Oc4ccccc4S3(=O)=O)c2)C(C)(C)C(=O)Nc2cccnc2)nn1 [Example 53, (R)-3-(3-((4,4-Dimethyl-1,1-dioxido-3,4-dihydro-2H-benzo[b][1,4,5]oxathiazepin-2-yl)methyl)-4-methylphenyl)-2,2-dimethyl-3-((1-propyl-1H-1,2,3-triazol-4-yl)methoxy)-N-(pyridin-3-yl)propanamide] | 100 to 1000 nM |  |
| CCCn1cc(CO[C@H](c2ccc(C)c(CN3C[C@@H](C)Cc4ccncc4S3(=O)=O)c2)C(C)(C)C(=O)Nc2cccnc2)nn1 [Example 54] |  | EC50 [2]: 10 to 100 nM |
| CCCn1cc(CO[C@H](c2ccc(C)c(CN3C[C@@H](CC)Oc4ccccc4S3(=O)=O)c2)C(C)(C)C(=O)Nc2cccnc2)nn1 [Example 55, (R)-3-(3-(((R)-4-Ethyl-1,1-dioxido-3,4-dihydro-2H-benzo[b][1,4,5]oxathiazepin-2-yl)methyl)-4-methylphenyl)-2,2-dimethyl-3-((1-propyl-1H-1,2,3-triazol-4-yl)methoxy)-N-(pyridin-3-yl)propanamide] | 100 to 1000 nM |  |
| CCCn1cc(CO[C@H](c2ccc(C)c(CN3C[C@@H](C)Cc4ccc(F)cc4S3(=O)=O)c2)C(C)(C)C(=O)Nc2cccnc2)nn1 [Example 56, (R)-3-(3-(((S)-8-Fluoro-4-methyl-1,1-dioxido-4,5-dihydrobenzo[f][1,2]thiazepin-2(3H)-yl)methyl)-4-methylphenyl)-2,2-dimethyl-3-((1-propyl-1H-1,2,3-triazol-4-yl)methoxy)-N-(pyridin-3-yl)propanamide] | 100 to 1000 nM |  |
| CC[C@H]1Cc2ccccc2S(=O)(=O)N(Cc2cc([C@H](OCc3cn(CC)nn3)C(C)(C)C(=O)Nc3cccnc3)ccc2C)C1 [Example 57, (S)-3-(3-(((S)-4-Ethyl-1,1-dioxido-4,5-dihydrobenzo[f][1,2]thiazepin-2(3H)-yl)methyl)-4-methylphenyl)-3-((1-ethyl-1H-1,2,3-triazol-4-yl)methoxy)-2,2-dimethyl-N-(pyridin-3-yl)propanamide] | 10 to 100 nM |  |
| CCn1cc(CO[C@@H](c2ccc(C)c(CN3C[C@@H](C)Cc4ncccc4S3(=O)=O)c2)C(C)(C)C(=O)Nc2cccnc2)nn1 [Example 58, (S)-3-((1-Ethyl-1H-1,2,3-triazol-4-yl)methoxy)-2,2-dimethyl-3-(4-methyl-3-(((S)-4-methyl-1,1-dioxido-4,5-dihydropyrido[2,3-f][1,2]thiazepin-2(3H)-yl)methyl)phenyl)-N-(pyridin-3-yl)propanamide] | 100 to 1000 nM |  |
| CCn1nnc2c(C)c([C@H](c3ccc(C)c(CN4C[C@H](C)Cc5ccccc5S4(=O)=O)c3)C(C)(C)C(=O)Nc3cccnc3)cc(OC)c21 [Example 59, (S)-3-(1-Ethyl-7-methoxy-4-methyl-1H-benzo[d][1,2,3]triazol-5-yl)-2,2-dimethyl-3-(4-methyl-3-(((R)-4-methyl-1,1-dioxido-4,5-dihydrobenzo[f][1,2]thiazepin-2(3H)-yl)methyl)phenyl)-N-(pyridin-3-yl)propanamide] | 100 to 1000 nM |  |
| CC[C@@H]1CN(Cc2cc([C@H](c3cc(OC)c4c(nnn4CC)c3C)C(C)(C)C(=O)Nc3cccnc3)ccc2C)S(=O)(=O)c2ccccc2O1 [Example 60, (R)-3-(3-(((R)-4-Ethyl-1,1-dioxido-3,4-dihydro-2H-benzo[b][1,4,5]oxathiazepin-2-yl)methyl)-4-methylphenyl)-3-(1-ethyl-7-methoxy-4-methyl-1H-benzo[d][1,2,3]triazol-5-yl)-2,2-dimethyl-N-(pyridin-3-yl)propanamide] | 100 to 1000 nM |  |
| COc1cc(C(CC(=O)Nc2cccnc2)c2ccc(C)c(CN3C[C@@H](C)Cc4ccc(C(F)(F)F)cc4S3(=O)=O)c2)cc2nnn(C)c12 (some centres unmarked) [Example 61] |  | EC50 [2]: 10 to 100 nM |
| COc1cc([C@@H](CC(=O)Nc2cccnc2)c2ccc(C)c(CN3C[C@@H](C)Oc4ccccc4S3(=O)=O)c2)cc2nnn(C)c12 [Example 62, (S)-3-(7-Methoxy-1-methyl-1H-benzo[d][1,2,3]triazol-5-yl)-3-(4-methyl-3-(((R)-4-methyl-1,1-dioxido-3,4-dihydro-2H-benzo[b][1,4,5]oxathiazepin-2-yl)methyl)phenyl)-N-(pyridin-3-yl)propanamide] | 10 to 100 nM |  |
| CCn1nnc2c(C)c([C@H](c3ccc(C)c(CN4C[C@@H](C)Cc5ccc(C(F)(F)F)cc5S4(=O)=O)c3)C(C)(C)C(=O)Nc3cccnc3)cc(OC)c21 [Example 63, (S)-3-(1-Ethyl-7-methoxy-4-methyl-1H-benzo[d][1,2,3]triazol-5-yl)-2,2-dimethyl-3-(4-methyl-3-(((S)-4-methyl-1,1-dioxido-8-(trifluoromethyl)-4,5-dihydrobenzo[f][1,2]thiazepin-2(3H)-yl)methyl)phenyl)-N-(pyridin-3-yl)propanamide] | 1 to 10 nM |  |

Source: patent US11078216B2, “Bisaryl amides as NRF2 activators” (GLAXOSMITHKLINE INTELLECTUAL PROPERTY DEVELOPMENT LIMITED, priority 2016, dated 2021)
